Measured values from the NIST ThermoML archive (doi:10.1021/acs.jced.6b00350).

Settings: Liquid, Hot wire method

FC(F)CC(F)(F)F [1,1,1,3,3-pentafluoropropane]
Settings	thermal conductivity [W/m/K]
183.14 K, 5877 kPa	0.1234
183.14 K, 70492 kPa	0.1338
183.14 K, 70493 kPa	0.134
183.15 K, 12341 kPa	0.1246
183.15 K, 18865 kPa	0.1257
183.15 K, 25402 kPa	0.1266
183.16 K, 12323 kPa	0.1246
183.16 K, 18832 kPa	0.1258
183.16 K, 25441 kPa	0.1268
183.16 K, 32517 kPa	0.1281
183.17 K, 32553 kPa	0.1282
183.18 K, 63248 kPa	0.1329
183.19 K, 63254 kPa	0.133
183.25 K, 54977 kPa	0.1312
183.25 K, 54980 kPa	0.1317
183.29 K, 47629 kPa	0.13
183.3 K, 47628 kPa	0.1305
183.34 K, 39964 kPa	0.1291
183.34 K, 39965 kPa	0.1291
183.5 K, 279 kPa	0.1222
183.5 K, 290 kPa	0.1225
183.5 K, 5883 kPa	0.1234
183.5 K, 12421 kPa	0.1245
183.5 K, 70475 kPa	0.1338
183.5 K, 70484 kPa	0.1336
183.51 K, 5882 kPa	0.1233
183.51 K, 12360 kPa	0.1246
183.51 K, 18836 kPa	0.1258
183.51 K, 18859 kPa	0.1258
183.51 K, 25404 kPa	0.1269
183.51 K, 25455 kPa	0.1269
183.51 K, 32519 kPa	0.1282
183.51 K, 32578 kPa	0.1281
183.54 K, 63251 kPa	0.133
183.55 K, 63252 kPa	0.1329
183.62 K, 54975 kPa	0.1314
183.66 K, 47626 kPa	0.1304
183.67 K, 47632 kPa	0.1303
183.71 K, 39948 kPa	0.129
183.71 K, 39959 kPa	0.1291
183.88 K, 5875 kPa	0.1233
183.88 K, 18828 kPa	0.1257
183.88 K, 18858 kPa	0.1257
183.88 K, 25416 kPa	0.1267
183.88 K, 32497 kPa	0.1281
183.88 K, 70464 kPa	0.1338
183.89 K, 5878 kPa	0.1233
183.89 K, 12374 kPa	0.1246
183.89 K, 12395 kPa	0.1244
183.89 K, 25431 kPa	0.1268
183.89 K, 32541 kPa	0.1281
183.89 K, 70475 kPa	0.1341
183.9 K, 282 kPa	0.1223
183.9 K, 287 kPa	0.1222
183.93 K, 63243 kPa	0.1325
183.93 K, 63247 kPa	0.1328
184.01 K, 54967 kPa	0.1313
184.01 K, 54970 kPa	0.1314
184.06 K, 47633 kPa	0.1303
184.06 K, 47634 kPa	0.13
184.1 K, 39951 kPa	0.129
184.1 K, 39957 kPa	0.129
201.76 K, 4752 kPa	0.1207
201.76 K, 4760 kPa	0.1207
201.78 K, 10055 kPa	0.1218
201.78 K, 10078 kPa	0.1219
201.81 K, 15810 kPa	0.1231
201.85 K, 253 kPa	0.1197
201.86 K, 245 kPa	0.1197
